How the values were obtained:
Assay type in all cases: physicochemical
[1] = Stability of pravastatin (lactone and impurity formation) in buffers of pH 7 to 11; conditions: buffers pH 7 to 11 (phosphate, citrate, borate); 1, 5, 13 and 28 days
Text: The third observation is that a sufficient stabilization of the active substance is already obtained at a pH of at least 7.0, but a beneficially high stability is effected at a pH of at least 8.0. We have noticed that at a pH below 8 the formation of lactone has occurred and also the amount of other impurities has increased. The presence of humidity in the air and a carbon dioxide-rich atmosphere makes the negative effect of a low pH even stronger. This is illustrated by the following experiment: Pravastatin was dissolved in different buffers with the pH in a range between 7 and 11 (F=phosphate, C=citrate, B=borate). The occurrence of pravastatin in lactone form and the formation of different degradation products (impurities) were measured after 1, 5, 13 and 28 days.

[2] = pH of pravastatin sodium crystals kept in normal air, nitrogen or carbon dioxide atmosphere
Protocol: Another observation was that carbon dioxide from the air may irreversibly and reversibly bind to the active substance and can cause a drop of pH. This is illustrated by the following experiment: 5 g of pravastatin sodium were dissolved in 30 ml of methanol, the pH was adjusted to 10 with 3% aqueous solution of NaOH. 400 ml of ethylacetate were added and the crystals of pravastatin sodium were formed. Crystals were filtered and dried and then put into three different atmospheres: normal air, nitrogen atmosphere and carbon dioxide atmosphere. In normal air and in the nitrogen atmosphere the pH remained the same during a period of 24 hours (normal air: pH 9.2, nitrogen: pH 9.5), but in the carbon dioxide atmosphere the pH dropped in the first two minutes from 9.2 to 6.9. After 12 minutes the pH was 6.6 and after 1 hour the pH was 6.5. After that, the pH remained constant.

[3] = pH value of 1% or 5% aqueous solution of the active substance, after preparing and after 1 week on air
Protocol: Within the scope of this invention the term “which will provide a pH value” means a pH value that is measured in an aqueous solution or dispersion of an active substance or of a mixture of the active substance with the buffering substance or of a stabilized active substance according to this invention or of a pharmaceutical formulation or of a stabilized pharmaceutical formulation of an active substance obtained according to this invention. The concentration of such an aqueous solution or dispersion is 1% or 5%. The measurement procedure is described in Examples 1-11.

pH at which formation of lactone occurred and other impurities increased [1]: below 8
pH in carbon dioxide atmosphere after 12 minutes ([2]; carbon dioxide atmosphere, 12 minutes): 6.6
pH in carbon dioxide atmosphere after 1 hour ([2]; carbon dioxide atmosphere, 1 hour, constant afterwards): 6.5
pH in carbon dioxide atmosphere after two minutes ([2]; carbon dioxide atmosphere, first two minutes): 6.9
pH at start in carbon dioxide atmosphere ([2]; carbon dioxide atmosphere, starting value): 9.2
pH in normal air ([2]; crystals from solution adjusted to pH 10 with NaOH, normal air, remained the same during 24 hours): 9.2
pH in nitrogen atmosphere ([2]; nitrogen atmosphere, remained the same during 24 hours): 9.5
Value pH (1%) after 1 week on air atm ([3]; 1% aqueous solution, after 1 week in air atmosphere): 7.2
Value pH (1%) after preparing ([3]; 1% aqueous solution, after preparing): 7.4
Value pH (5%) after 1 week on air atm ([3]; 5% aqueous solution, after 1 week in air atmosphere): 7.6
Value pH (5%) after preparing ([3]; 5% aqueous solution, after preparing): 7.7
SMILES: CC[C@H](C)C(=O)O[C@H]1C[C@H](O)C=C2C=C[C@H](C)[C@H](CC[C@@H](O)C[C@@H](O)CC(=O)O)[C@H]21 [Pravastatin Sodium]
